Data from PubChem BioAssay AID1259407 (Chemical Carcinogenesis Research Information System (CCRIS), 2018).
Activity calls are given as the source filed them. No rule for the calls is given here.

Test system: CCRIS mutagenicity, Ames/micronucleus/aberration tests
Assay: CCRIS mutagenicity studies
[1] = Test System: AMES SALMONELLA TYPHIMURIUM, Strain/Indicator: TA98, Metabolic Activation: HAMSTER, LIVER, S-9, AROCLOR 1254 (10%), Method: PREINCUBATION
[2] = Test System: AMES SALMONELLA TYPHIMURIUM, Strain/Indicator: TA98, Metabolic Activation: NONE, Method: PREINCUBATION
[3] = Test System: AMES SALMONELLA TYPHIMURIUM, Strain/Indicator: TA98, Metabolic Activation: NONE, Method: STANDARD PLATE
[4] = Test System: AMES SALMONELLA TYPHIMURIUM, Strain/Indicator: TA98, Metabolic Activation: RAT, LIVER, S-9, AROCLOR 1254 (10%), Method: PREINCUBATION
[5] = Test System: AMES SALMONELLA TYPHIMURIUM, Strain/Indicator: TA100, Metabolic Activation: HAMSTER, LIVER, S-9, AROCLOR 1254 (10%), Method: PREINCUBATION
[6] = Test System: AMES SALMONELLA TYPHIMURIUM, Strain/Indicator: TA100, Metabolic Activation: NONE, Method: PREINCUBATION
[7] = Test System: AMES SALMONELLA TYPHIMURIUM, Strain/Indicator: TA100, Metabolic Activation: NONE, Method: STANDARD PLATE
[8] = Test System: AMES SALMONELLA TYPHIMURIUM, Strain/Indicator: TA100, Metabolic Activation: RAT, LIVER, S-9, AROCLOR 1254 (10%), Method: PREINCUBATION
[9] = Test System: AMES SALMONELLA TYPHIMURIUM, Strain/Indicator: TA1535, Metabolic Activation: HAMSTER, LIVER, S-9, AROCLOR 1254 (10%), Method: PREINCUBATION
[10] = Test System: AMES SALMONELLA TYPHIMURIUM, Strain/Indicator: TA1535, Metabolic Activation: NONE, Method: PREINCUBATION
[11] = Test System: AMES SALMONELLA TYPHIMURIUM, Strain/Indicator: TA1535, Metabolic Activation: RAT, LIVER, S-9, AROCLOR 1254 (10%), Method: PREINCUBATION
[12] = Test System: AMES SALMONELLA TYPHIMURIUM, Strain/Indicator: TA1537, Metabolic Activation: HAMSTER, LIVER, S-9, AROCLOR 1254 (10%), Method: PREINCUBATION
[13] = Test System: AMES SALMONELLA TYPHIMURIUM, Strain/Indicator: TA1537, Metabolic Activation: NONE, Method: PREINCUBATION
[14] = Test System: AMES SALMONELLA TYPHIMURIUM, Strain/Indicator: TA1537, Metabolic Activation: RAT, LIVER, S-9, AROCLOR 1254 (10%), Method: PREINCUBATION

CC1=CC(C)(C)Nc2ccccc21
mutagenic call [1]: inactive; negative
mutagenic call [2]: inactive; negative
mutagenic call [3]: inactive; negative
mutagenic call [4]: inactive; negative
mutagenic call (Test System: AMES SALMONELLA TYPHIMURIUM, Strain/Indicator: TA98, Metabolic Activation: S-9, Method: STANDARD PLATE): inactive; negative
mutagenic call [5]: inactive; negative
mutagenic call [6]: inactive; negative
mutagenic call [7]: inactive; negative
mutagenic call [8]: inactive; negative
mutagenic call (Test System: AMES SALMONELLA TYPHIMURIUM, Strain/Indicator: TA100, Metabolic Activation: S-9, Method: STANDARD PLATE): inactive; negative
mutagenic call [9]: inactive; negative
mutagenic call [10]: inactive; negative
mutagenic call [11]: inactive; negative
mutagenic call [12]: inactive; negative
mutagenic call [13]: inactive; negative
mutagenic call [14]: inactive; negative

O=C(CCl)c1ccccc1
mutagenic call [1]: inactive; negative
mutagenic call (Test System: AMES SALMONELLA TYPHIMURIUM, Strain/Indicator: TA98, Metabolic Activation: NONE): inactive; negative
mutagenic call [2]: inactive; negative
mutagenic call [4]: inactive; negative
mutagenic call (Test System: AMES SALMONELLA TYPHIMURIUM, Strain/Indicator: TA98, Metabolic Activation: RAT, LIVER, S-9, PHENOBARBITONE AND BETA-NAPHTHOFLAVONE): inactive; negative
mutagenic call [5]: inactive; negative
mutagenic call (Test System: AMES SALMONELLA TYPHIMURIUM, Strain/Indicator: TA100, Metabolic Activation: NONE): inactive; negative
mutagenic call [6]: inactive; negative
mutagenic call [8]: inactive; negative
mutagenic call (Test System: AMES SALMONELLA TYPHIMURIUM, Strain/Indicator: TA100, Metabolic Activation: RAT, LIVER, S-9, PHENOBARBITONE AND BETA-NAPHTHOFLAVONE): inactive; negative
mutagenic call [9]: inactive; negative
mutagenic call [10]: inactive; negative
mutagenic call [11]: inactive; negative
mutagenic call [12]: inactive; negative
mutagenic call [13]: inactive; negative
mutagenic call [14]: inactive; negative
mutagenic call (Test System: AMES SALMONELLA TYPHIMURIUM, Strain/Indicator: TA1538, Metabolic Activation: NONE): inactive; negative
mutagenic call (Test System: AMES SALMONELLA TYPHIMURIUM, Strain/Indicator: TA1538, Metabolic Activation: RAT, LIVER, S-9, PHENOBARBITONE AND BETA-NAPHTHOFLAVONE): inactive; negative

O=S(=O)(O)OCc1c2ccccc2c2ccc3cccc4ccc1c2c43
mutagenic call [2]: active; positive
mutagenic call [3]: active; positive
mutagenic call [6]: active; positive
mutagenic call (Test System: CHINESE HAMSTER V-79, Strain/Indicator: V-79 (HGPRT)/6-THIOGUANINE, Metabolic Activation: NONE): active; positive
mutagenic call (Test System: CHINESE HAMSTER V-79, Strain/Indicator: V-79 (NA/K-ATPASE)/OUABAIN, Metabolic Activation: NONE): active; positive

O=C1OC(=O)c2ccccc21
mutagenic call (End Point: IN VITRO CHROMOSOMAL ABERRATIONS, Test System: CHINESE HAMSTER OVARY CELLS, Metabolic Activation: NONE): inactive; negative
mutagenic call (End Point: IN VITRO CHROMOSOMAL ABERRATIONS, Test System: CHINESE HAMSTER OVARY CELLS, Metabolic Activation: RAT, LIVER, S-9, AROCLOR 1254): inactive; negative
mutagenic call (End Point: IN VITRO CHROMOSOMAL ABERRATIONS, Test System: CHO CELLS, Metabolic Activation: NONE): active; positive; precipitation occurred at 10 mm
mutagenic call [1]: inactive; negative
mutagenic call [2]: inactive; negative
mutagenic call (Test System: AMES SALMONELLA TYPHIMURIUM, Strain/Indicator: TA98, Metabolic Activation: RAT LIVER S-9, PHENOBARBITAL AND BETA-NAPHTHOFLAVONE, Method: PREINCUBATION): inactive; negative
mutagenic call [4]: inactive; negative
mutagenic call [5]: inactive; negative
mutagenic call [6]: inactive; negative
mutagenic call (Test System: AMES SALMONELLA TYPHIMURIUM, Strain/Indicator: TA100, Metabolic Activation: RAT LIVER S-9, PHENOBARBITAL AND BETA-NAPHTHOFLAVONE, Method: PREINCUBATION): inactive; negative
mutagenic call [8]: inactive; negative
mutagenic call [9]: inactive; negative
mutagenic call [10]: inactive; negative
mutagenic call (Test System: AMES SALMONELLA TYPHIMURIUM, Strain/Indicator: TA1535, Metabolic Activation: RAT LIVER S-9, PHENOBARBITAL AND BETA-NAPHTHOFLAVONE, Method: PREINCUBATION): inactive; negative
mutagenic call [11]: inactive; negative
mutagenic call [12]: inactive; negative
mutagenic call [13]: inactive; negative
mutagenic call (Test System: AMES SALMONELLA TYPHIMURIUM, Strain/Indicator: TA1537, Metabolic Activation: RAT LIVER S-9, PHENOBARBITAL AND BETA-NAPHTHOFLAVONE, Method: PREINCUBATION): inactive; negative
mutagenic call [14]: inactive; negative
mutagenic call (Test System: E.COLI, Strain/Indicator: WP2UVRA, Metabolic Activation: NONE, Method: PREINCUBATION): inactive; negative
mutagenic call (Test System: E.COLI, Strain/Indicator: WP2UVRA, Metabolic Activation: RAT LIVER S-9, PHENOBARBITAL AND BETA-NAPHTHOFLAVONE, Method: PREINCUBATION): inactive; negative

O=C(O)/C=C/c1ccccc1[N+](=O)[O-]
mutagenic call [2]: inactive; negative
mutagenic call [3]: inactive; negative
mutagenic call (Test System: AMES SALMONELLA TYPHIMURIUM, Strain/Indicator: TA98, Metabolic Activation: RAT, LIVER, S-9, AROCLOR 1254, Method: STANDARD PLATE): inactive; negative
mutagenic call (Test System: AMES SALMONELLA TYPHIMURIUM, Strain/Indicator: TA98, Method: PREINCUBATION): inactive; negative
mutagenic call [6]: inactive; negative
mutagenic call [7]: inactive; negative
mutagenic call (Test System: AMES SALMONELLA TYPHIMURIUM, Strain/Indicator: TA100, Metabolic Activation: RAT, LIVER, S-9, AROCLOR 1254, Method: PREINCUBATION): inactive; negative
mutagenic call (Test System: AMES SALMONELLA TYPHIMURIUM, Strain/Indicator: TA100, Metabolic Activation: RAT, LIVER, S-9, AROCLOR 1254, Method: STANDARD PLATE): inactive; negative
mutagenic call (Test System: AMES SALMONELLA TYPHIMURIUM, Strain/Indicator: TA100, Method: PREINCUBATION): inactive; negative
mutagenic call [10]: inactive; negative
mutagenic call (Test System: AMES SALMONELLA TYPHIMURIUM, Strain/Indicator: TA1535, Method: PREINCUBATION): inactive; negative
mutagenic call [13]: inactive; negative
mutagenic call (Test System: AMES SALMONELLA TYPHIMURIUM, Strain/Indicator: TA1537, Method: PREINCUBATION): inactive; negative
mutagenic call (Test System: AMES SALMONELLA TYPHIMURIUM, Strain/Indicator: TA1538, Metabolic Activation: NONE, Method: PREINCUBATION): inactive; negative
mutagenic call (Test System: AMES SALMONELLA TYPHIMURIUM, Strain/Indicator: TA1538, Method: PREINCUBATION): inactive; negative
